According to US12226405B2, “Compounds and compositions for inhibiting the activity of HIF2-alpha and their methods of use” (Novartis AG, priority 2020, dated 2025):

What was measured:
[1] = system: HIF2α-dependent transcription in 786-O-HRE-Luc cells; assay: In vitro cellular hypoxia response element (HRE) reporter gene assay (RGA) for HIF2α; format: cell-based, human; details: Homo sapiens, 24 hours incubation
Procedure, shortened: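 Renal carcinoma cells carrying a 4×HRE-driven PEST-destabilised firefly luciferase were treated a day after seeding with eleven 2-fold compound dilutions (0.1% DMSO) for 24 h at 37° C. BrightGlo luminescence, background-subtracted and expressed as % of DMSO control, was fitted four-parametrically for IC50.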

[2] = molecular target: HIF2α PAS-B domain (236-350, biotinylated on the N-terminus) (Homo sapiens (Human), UniProt Q99814); assay: In vitro SPA with the PAS-B domain of HIF2α (competition binding with radio-ligand); details: versus corresponding enantiomer
HIF2α PAS-B domain (236-350, biotinylated on the N-terminus), sequence (Q99814 236-350): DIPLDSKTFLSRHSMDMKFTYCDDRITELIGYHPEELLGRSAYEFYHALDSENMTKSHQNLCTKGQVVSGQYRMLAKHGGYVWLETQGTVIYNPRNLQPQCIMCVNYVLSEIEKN
Method: The assay buffer contained 50 mM Tris-HCl pH7 (Sigma), 20 mM NaCl (Fluka), 0.02% BSA (Sigma), 0.005% Triton X-100 (Pierce) and 1 mM DTT (Fluka). After a 30 min incubation period, 5 μL Streptavidin PVT SPA Beads (Perkin Elmer) at 1.2 mg/mL, diluted in the buffer, were added.

For FC(F)OC1=CC(C(F)(F)F)=CN2C[C@@]3(CCC(F)(F)c4c3ccnc4Cl)N=C12 [Example 31, (S)-1′-chloro-8-(difluoromethoxy)-8′,8′-difluoro-6-(trifluoromethyl)-7′,8′-dihydro-3H,6′H-spiro[imidazo[1,2-a]pyridine-2,5′-isoquinoline]], the IC50 [1] was 246 nM.
With FC(F)OC1=CC(C(F)(F)F)=CN2C[C@@]3(CCOc4cc(C(F)(F)F)ccc43)N=C12 [Example 44, (S)-8′-(difluoromethoxy)-6′,7-bis(trifluoromethyl)-3′H-spiro[chroman-4,2′-imidazo[1,2-a]pyridine]] the IC50 [1] was 112 nM and the “IC50 in the Hif2α SPA assay, fold lower than for the corresponding (R)-enantiomer” value [2] was “greater than 700 fold”.
